Data from patent US8529877B2, “Benzylidene compounds comprising phosphono-groups” (BASF SE, priority 2008, dated 2013).

Columns and labels:
Type in all cases: physicochemical
[1] = UV shielding properties: UV spectra in ethanol (absorption maximum, A1%1cm); parameters: Absorption maximum λmax: unit not given here; details: for Absorption maximum λmax / A^1%1 cm: UV spectra in ethanol; for A^1%1 cm: at the absorption maximum; for Absorption bands (coverage of UV range): UV spectrum in ethanol
Source text: The UV shielding properties of the bisbiphenyl triazine derivatives were investigated by measuring their UV spectra in ethanol. In the following table the investigated absorption maxima (λmax) together with the corresponding A^1%1cm values are listed.

[2] = Photostability of the UV filter in highly diluted ethanol solution under irradiation, analysed by UV spectroscopy; details: for Half time: first order kinetic fit, half-life under COLIPA standard sun irradiation
Method: The method used for assessment of photostability is based on the irradiation of a highly diluted solution of the UV-filter. The analysis after certain doses of irradiation was performed by UV-spectroscopy. The concentration of the UV-absorber in ethanol is adjusted to values between 1·10^−5 and 1·10^−6 mol/l, such that the absorbance of the solution in cuvette of 1 cm optical pathlength is equal or smaller than 0.2. The mutual protection of filter molecules can be excluded under such conditions.
Prior to irradiation of a sample the UVB-intensity at the sample position is measured with a UV-radiometer (RM-12, Dr. Gröbel Electronic GmbH). This radiometer was calibrated by comparison with a measurement of the spectral output of the metal halide lamp (including light guide and cut-off filter) using a wavelength-resolved radiometer (Gamma C11). Therefore the relationship of the reading of the RM-12 radiometer and the corresponding spectral output of the lamp is known, and one is able to determine the wavelength-resolved intensities by measuring the UVB-intensity. By changing the distance between the end of the light guide and the cuvette, the UVB-intensity can be varied in the range of 100 μW/cm^2 and 4500 μW/cm^2.
For sample irradiation the highest possible intensity was used (4.5 mW/cm^2 UVB-intensity measured with the Macam 103 radiometer). The irradiation time was varied from 0 to 180 min. The dose the sample has received after 180 minutes corresponds to 60 MED. During irradiation the sample was stirred. After certain intervals of irradiation, the samples were analysed in a UV-spectrometer (Perkin Elmer, Lambda 16).
From the absorbance values at each dose of irradiation the concentration may be calculated using Lambert-Beer's law. In order to get the half-life of the substance, a first order kinetic model was fitted to the experimental data. Since the UV-spectrum of the lamp and the UV-spectrum of the COLIPA standard sun are known, one can calculate the respective half-life of the UV-absorber under conditions of COLIPA standard sun irradiation [Bernd Herzog, Stefan Müller, Myriam Sohn, Uli Osterwalder, “New Insight and Prediction of Photostablity of Sunscreens”, SÖFW Journal 133, 26-36 (2007)].
The investigated half-time values and recovery after irradiation (10 MED) of some specific benzotropolones are listed in the table below: […]

[3] = Photostability of Butyl Methoxydibenzoylmethane in O/W sunscreen film, solar simulator, HPLC; details: for Residual Butyl Methoxydibenzoylmethane: solar simulator 2 hours (5400 kJ/m2)
Method: The photostability of Butyl Methoxydibenzoylmethane is determined by spreading the emulsion as a 20 μm thick film on a quartz plate. The film is irradiated using a solar simulator for 2 hours (5400 kJ/m2). After irradiation, the quartz plate is plunged into 5 ml of tetrahydrofurane. The amount of UV-A filter Butyl Methoxydibenzoylmethane is then determined using high performance liquid chromatography. The residual Butyl Methoxydibenzoylmethane is determined to be 42%.
The photostability of Butyl Methoxydibenzoylmethane in the comparative formulation B is determined as described above for formulation A. The residual Butyl Methoxydibenzoylmethane is determined to be 4%.

[4] = Photostability of Ethylhexyl Methoxycinnemate in O/W sunscreen film, solar simulator, HPLC; details: for Residual Ethylhexyl Methoxycinnemate: solar simulator 4 hours (10800 kJ/m2)
Method: The photostability of the UV-B filter Ethylhexyl Methoxycinnemate is determined by spreading the emulsion as a 20 μm thick film on a quartz plate. The film is irradiated using a solar simulator for 4 hours (10800 kJ/m2). After irradiation, the quartz plate is plunged into 5 ml of tetrahydrofurane. The amount of UV-B filter Ethylhexyl Methoxycinnemate is then determined using high performance liquid chromatography. The residual Ethylhexyl Methoxycinnemate is determined to be 59%.
The photostability of Ethylhexyl Methoxycinnemate in the comparative formulation B is determined as described above for formulation A. The residual Ethylhexyl Methoxycinnemate is determined to be 38%.

[5] = O/W Sunscreen Formulation A (with P-01), 20 μm film on quartz plate
[6] = comparative formulation B (without P-01), 20 μm film
[7] = formulation A versus comparative formulation B

CCOP(=O)(OCC)C(=Cc1ccc(-c2ccccc2)cc1)P(=O)(OCC)OCC [Compound P-5]
Absorption maximum λmax [1]: 299
A^1%1 cm [1]: 427
Absorption bands (coverage of UV range) [1]: broad absorption bands
Half time [2]: 7 h

CCOC(=O)/C(=C\c1ccc(-c2ccccc2)cc1)P(=O)(OCC)OCC [Compound P-7]
Absorption maximum λmax [1]: 302
A^1%1 cm [1]: 650
Absorption bands (coverage of UV range) [1]: broad absorption bands
Photodegradation after irradiation of 10 MED [2]: no photodegradation
Half time [2]: 466.6 h

CCOC(=O)/C(=C\c1ccc(O)c(OC)c1)P(=O)(OCC)OCC [Compound P-21]
Absorption maximum λmax [1]: 319
A^1%1 cm [1]: 429

CCOC(=O)/C(=C\c1cc(OC)c(OC)c(OC)c1)P(=O)(OCC)OCC [Compound P-22]
Absorption maximum λmax [1]: 299
A^1%1 cm [1]: 357
Half time [2]: 262.8 h

CCOC(=O)/C(=C\c1ccc(-c2ccc(/C=C(\C(=O)OCC)P(=O)(OCC)OCC)cc2)cc1)P(=O)(OCC)OCC [Compound P-19]
Absorption maximum λmax [1]: 324
A^1%1 cm [1]: 733
Half time [2]: 220.6 h

CCOP(=O)(OCC)C(=Cc1ccc(OC)cc1)P(=O)(OCC)OCC [Compound P-6]
Absorption maximum λmax [1]: 313
A^1%1 cm [1]: 575
Absorption bands (coverage of UV range) [1]: broad absorption bands
Half time [2]: 11285 h

CCOC(=O)/C(=C\c1ccc(N(CC)CC)cc1)P(=O)(OCC)OCC [Compound P-3]
Absorption maximum λmax [1]: 366
A^1%1 cm [1]: 624
Absorption bands (coverage of UV range) [1]: broad absorption bands
Half time [2]: 320 h

CCOC(=O)/C(=C\c1cc(OC)c(O)c(OC)c1)P(=O)(OCC)OCC [Compound P-4]
Absorption maximum λmax [1]: 322
A^1%1 cm [1]: 390
Absorption bands (coverage of UV range) [1]: broad absorption bands
Half time [2]: 100 h

COc1ccc(C(=O)CC(=O)c2ccc(C(C)(C)C)cc2)cc1 [Butyl Methoxydibenzoylmethane, 1-[4-(1,1-dimethylethyl)phenyl]-3-(4-methoxyphenyl)propane-1,3-dione]
Residual Butyl Methoxydibenzoylmethane [3, 5]: 42%
Residual Butyl Methoxydibenzoylmethane [3, 6]: 4%

CCOC(=O)/C(=C\c1ccc(NC(C)=O)cc1)P(=O)(OCC)OCC [Compound P-17]
Absorption maximum λmax [1]: 308
A^1%1 cm [1]: 604
Half time [2]: 947.6 h

CCOC(=O)/C(=C\c1ccc(OC)cc1)P(=O)(OCC)OCC [Compound P-1]
Absorption maximum λmax [1]: 303
A^1%1 cm [1]: 519
Absorption bands (coverage of UV range) [1]: broad absorption bands
Photodegradation after irradiation of 10 MED [2]: no photodegradation
Half time [2]: 14 311 h
Stabilization factor of Butyl Methoxydibenzoylmethane [3, 7]: at least 10
Stabilization factor of Ethylhexyl Methoxycinnemate [4, 7]: 1.55

CCCCC(CC)COC(=O)C=Cc1ccc(OC)cc1 (centres unmarked) [Ethylhexyl Methoxycinnemate, 2-ethylhexyl 4-methoxycinnamate]
Residual Ethylhexyl Methoxycinnemate [4, 5]: 59%
Residual Ethylhexyl Methoxycinnemate [4, 6]: 38%

CCOC(=O)/C(=C\c1ccc(/C=C(\C(=O)OCC)P(=O)(OCC)OCC)cc1)P(=O)(OCC)OCC [Compound P-2]
Absorption maximum λmax [1]: 302
A^1%1 cm [1]: 500
Absorption bands (coverage of UV range) [1]: broad absorption bands
Half time [2]: 172 h

CCOC(=O)C(=C1c2ccccc2-c2ccccc21)P(=O)(OCC)OCC [Compound P-20]
Absorption maximum λmax [1]: 314
A^1%1 cm [1]: 371
Half time [2]: 449.2 h
